From ChEMBL document CHEMBL4373641, “Synthesis and direct comparison of the anticancer activities of phomopsolides D and E and two 7-oxa-/7-aza-analogues” (Medchemcomm, 2019)

Legend:
Format in all cases: functional, cell-based
HT-29 = experiment: Antiproliferative activity against human HT-29 cells assessed as reduction in cell viability after 48 hrs by SRB assay; conditions: HT-29, 48 h
OVCAR-5 = experiment: Antiproliferative activity against human OVCAR5 cells assessed as reduction in cell viability after 48 hrs by SRB assay; conditions: OVCAR-5, 48 h
TK-10 = experiment: Antiproliferative activity against human TK10 cells assessed as reduction in cell viability after 48 hrs by SRB assay; conditions: TK-10, 48 h
RPMI-8226 = experiment: Antiproliferative activity against human RPMI8226 cells assessed as reduction in cell viability after 48 hrs by SRB assay; conditions: RPMI-8226, 48 h
OVCAR-3 = experiment: Antiproliferative activity against human OVCAR3 cells assessed as reduction in cell viability after 48 hrs by SRB assay; conditions: OVCAR-3, 48 h
MCF7 = experiment: Antiproliferative activity against human MCF7 cells assessed as reduction in cell viability after 48 hrs by SRB assay; conditions: MCF7, 48 h
HCC 2998 = experiment: Antiproliferative activity against human HCC2998 cells assessed as reduction in cell viability after 48 hrs by SRB assay; conditions: HCC 2998, 48 h
KM12 = experiment: Antiproliferative activity against human KM12 cells assessed as reduction in cell viability after 48 hrs by SRB assay; conditions: KM12, 48 h
A498 = experiment: Antiproliferative activity against human A498 cells assessed as reduction in cell viability after 48 hrs by SRB assay; conditions: A498, 48 h
COLO 205 = experiment: Antiproliferative activity against human COLO205 cells assessed as reduction in cell viability after 48 hrs by SRB assay; conditions: COLO 205, 48 h
SN12C = experiment: Antiproliferative activity against human SN12C cells assessed as reduction in cell viability after 48 hrs by SRB assay
SK-OV-3 = experiment: Antiproliferative activity against human SKOV3 cells assessed as reduction in cell viability after 48 hrs by SRB assay; conditions: SK-OV-3, 48 h
IGROV-1 = experiment: Antiproliferative activity against human IGROV1 cells assessed as reduction in cell viability after 48 hrs by SRB assay; conditions: IGROV-1, 48 h
MDA-MB-231 = experiment: Antiproliferative activity against human MDA-MB-231 cells assessed as reduction in cell viability after 48 hrs by SRB assay; conditions: MDA-MB-231, 48 h
CCRF-CEM = experiment: Antiproliferative activity against human CCRF-CEM cells assessed as reduction in cell viability after 48 hrs by SRB assay
786-0 = experiment: Antiproliferative activity against human 786-0 cells assessed as reduction in cell viability after 48 hrs by SRB assay; conditions: 786-0, 48 h
HOP-92 = experiment: Antiproliferative activity against human HOP92 cells assessed as reduction in cell viability after 48 hrs by SRB assay; conditions: HOP-92, 48 h
SW-620 = experiment: Antiproliferative activity against human SW620 cells assessed as reduction in cell viability after 48 hrs by SRB assay; conditions: SW-620, 48 h
T47D = experiment: Antiproliferative activity against human T47D cells assessed as reduction in cell viability after 48 hrs by SRB assay
K562 = experiment: Antiproliferative activity against human K562 cells assessed as reduction in cell viability after 48 hrs by SRB assay; conditions: K562, 48 h
SF-268 = experiment: Antiproliferative activity against human SF268 cells assessed as reduction in cell viability after 48 hrs by SRB assay; conditions: SF-268, 48 h
MDA-MB-468 = experiment: Antiproliferative activity against human MDA-MB-468 cells assessed as reduction in cell viability after 48 hrs by SRB assay; conditions: MDA-MB-468, 48 h
DU-145 = experiment: Antiproliferative activity against human DU145 cells assessed as reduction in cell viability after 48 hrs by SRB assay; conditions: DU-145, 48 h
Hs-578T = experiment: Antiproliferative activity against human Hs 578T cells assessed as reduction in cell viability after 48 hrs by SRB assay
SF-295 = experiment: Antiproliferative activity against human SF295 cells assessed as reduction in cell viability after 48 hrs by SRB assay; conditions: SF-295, 48 h
NCI/ADR-RES = experiment: Antiproliferative activity against human NCI/ADR-RES cells assessed as reduction in cell viability after 48 hrs by SRB assay
MDA-MB-435 = experiment: Antiproliferative activity against human MDA-MB-435 cells assessed as reduction in cell viability after 48 hrs by SRB assay; conditions: MDA-MB-435, 48 h
HCT-116 = experiment: Antiproliferative activity against human HCT116 cells assessed as reduction in cell viability after 48 hrs by SRB assay; conditions: HCT-116, 48 h
SR = experiment: Antiproliferative activity against human SR cells assessed as reduction in cell viability after 48 hrs by SRB assay
RXF 393 = experiment: Antiproliferative activity against human RXF393 cells assessed as reduction in cell viability after 48 hrs by SRB assay; conditions: RXF 393, 48 h
UO-31 = experiment: Antiproliferative activity against human UO31 cells assessed as reduction in cell viability after 48 hrs by SRB assay; conditions: UO-31, 48 h
UACC-62 = experiment: Antiproliferative activity against human UACC62 cells assessed as reduction in cell viability after 48 hrs by SRB assay; conditions: UACC-62, 48 h, pooled result: one value given for 8 cell lines, strains, targets or settings
OVCAR-8 = experiment: Antiproliferative activity against human OVCAR8 cells assessed as reduction in cell viability after 48 hrs by SRB assay; conditions: OVCAR-8, 48 h
NCI-H522 = experiment: Antiproliferative activity against human NCI-H522 cells assessed as reduction in cell viability after 48 hrs by SRB assay; conditions: NCI-H522, 48 h, pooled result: one value given for 8 cell lines, strains, targets or settings
U-251 = experiment: Antiproliferative activity against human U251 cells assessed as reduction in cell viability after 48 hrs by SRB assay; conditions: U-251, 48 h
PC-3 = experiment: Antiproliferative activity against human PC3 cells assessed as reduction in cell viability after 48 hrs by SRB assay; conditions: PC-3, 48 h
HCT-15 = experiment: Antiproliferative activity against human HCT15 cells assessed as reduction in cell viability after 48 hrs by SRB assay; conditions: HCT-15, 48 h
BT-549 = experiment: Antiproliferative activity against human BT549 cells assessed as reduction in cell viability after 48 hrs by SRB assay; conditions: BT-549, 48 h
MOLT-4 = experiment: Antiproliferative activity against human MOLT4 cells assessed as reduction in cell viability after 48 hrs by SRB assay; conditions: MOLT-4, 48 h
OVCAR-4 = experiment: Antiproliferative activity against human OVCAR4 cells assessed as reduction in cell viability after 48 hrs by SRB assay; conditions: OVCAR-4, 48 h
SNB-75 = experiment: Antiproliferative activity against human SNB75 cells assessed as reduction in cell viability after 48 hrs by SRB assay; conditions: SNB-75, 48 h
SF-539 = experiment: Antiproliferative activity against human SF539 cells assessed as reduction in cell viability after 48 hrs by SRB assay; conditions: SF-539, 48 h
SNB-19 = experiment: Antiproliferative activity against human SNB19 cells assessed as reduction in cell viability after 48 hrs by SRB assay; conditions: SNB-19, 48 h
ACHN = experiment: Antiproliferative activity against human ACHN cells assessed as reduction in cell viability after 48 hrs by SRB assay
CAKI-1 = experiment: Antiproliferative activity against human CAKI-1 cells assessed as reduction in cell viability after 48 hrs by SRB assay; conditions: CAKI-1, 48 h
HL-60(TB) = experiment: Antiproliferative activity against human HL-60(TB) cells assessed as reduction in cell viability after 48 hrs by SRB assay; conditions: HL-60, 48 h

Measured: IC50

C/C=C(\C)C(=O)O[C@H]1C=CC(=O)O[C@H]1CNC(=O)[C@H](C)O
25 µM: HT-29 | HCC 2998 | KM12 | COLO 205 | SW-620 | DU-145 | HCT-116 | PC-3 | HCT-15
28 µM: UACC-62
30 µM: TK-10 | A498 | SN12C | 786-0 | RXF 393 | UO-31 | ACHN | CAKI-1
27 µM: NCI-H522
2 to 49 µM: OVCAR-5 | RPMI-8226 | OVCAR-3 | MCF7 | SK-OV-3 | IGROV-1 | MDA-MB-231 | CCRF-CEM | HOP-92 | T47D | K562 | SF-268 | MDA-MB-468 | Hs-578T | SF-295 | NCI/ADR-RES | MDA-MB-435 | SR | OVCAR-8 | U-251 | BT-549 | MOLT-4 | OVCAR-4 | SNB-75 | SF-539 | SNB-19 | HL-60(TB)

C/C=C(\C)C(=O)O[C@H]1C=CC(=O)O[C@H]1CCC(=O)[C@H](C)O
20 µM: MCF7 | MDA-MB-231 | T47D | Hs-578T | NCI/ADR-RES | MDA-MB-435
23 µM: DU-145 | PC-3
2 to 49 µM: OVCAR-5 | TK-10 | RPMI-8226 | OVCAR-3 | A498 | SN12C | SK-OV-3 | IGROV-1 | CCRF-CEM | 786-0 | HOP-92 | K562 | SF-268 | MDA-MB-468 | SF-295 | SR | RXF 393 | UO-31 | OVCAR-8 | U-251 | BT-549 | MOLT-4 | OVCAR-4 | SNB-75 | SF-539 | SNB-19 | ACHN | CAKI-1 | HL-60(TB)
26 µM: NCI-H522
24 µM: UACC-62
18 µM: HT-29 | HCC 2998 | KM12 | COLO 205 | SW-620 | HCT-116 | HCT-15
